Laboratory results reported in BigSolDB 2.1.

CN1C(C(=O)Nc2ccccn2)=C(O)c2sc(Cl)cc2S1(=O)=O
solubility (mole fraction) (in PEG-400, 298.15 K): 0.00861 | solubility (mole fraction) (in PEG-400, 303.15 K): 0.0099 | solubility (mole fraction) (in PEG-400, 308.15 K): 0.0112 | solubility (mole fraction) (in PEG-400, 313.15 K): 0.013 | solubility (mole fraction) (in PEG-400, 323.15 K): 0.0171 | solubility (mole fraction) (in water, 298.15 K): 2.9e-06 | solubility (mole fraction) (in water, 303.15 K): 4.11e-06 | solubility (mole fraction) (in water, 308.15 K): 5.62e-06 | solubility (mole fraction) (in water, 313.15 K): 7.41e-06 | solubility (mole fraction) (in water, 323.15 K): 1.2e-05
